{"source": "the Deep4Chem optical property database", "assay": "solvent given as SMILES", "data": [{"smiles": "CCN(CC)c1ccc2c(c1)oc(=O)c1cc3c(-c4ccccc4)nn(C)c3nc12", "values": [{"measurement": "fluorescence lifetime", "setting": "in ClCCl", "result": 18.9, "unit": "ns"}]}, {"smiles": "O=c1c2cccc3cccc(c32)c2nc3c(F)c(F)c(F)c(F)c3n12", "values": [{"measurement": "fluorescence lifetime", "setting": "in ClCCl", "result": 9, "unit": "ns"}]}, {"smiles": "CC(C)(C)OC(=O)n1ccc2c3ccc4cccc5ccc(cc21)c3c54", "values": [{"measurement": "fluorescence lifetime", "setting": "in CCOC(C)=O", "result": 8.29, "unit": "ns"}]}, {"smiles": "Cc1cc(=O)oc2cc3c(cc12)c1c2ccccc2c2ccccc2c1c1c2ccccc2c2ccccc2c31", "values": [{"measurement": "fluorescence lifetime", "setting": "in ClC(Cl)Cl", "result": 10.7, "unit": "ns"}]}, {"smiles": "O=P1(c2ccccc2)C(c2ccccc2)=Cc2cc3ccccc3cc21", "note": "(stereo not drawn)", "values": [{"measurement": "fluorescence lifetime", "setting": "in ClCCl", "result": 3.5, "unit": "ns"}]}, {"smiles": "CC(C)(C)c1ccc(C#Cc2cc3ccc4cc(C#Cc5ccc(C(C)(C)C)cc5)cc5ccc(c2)c3c45)cc1", "values": [{"measurement": "fluorescence lifetime", "setting": "in ClCCl", "result": 37.1, "unit": "ns"}]}, {"smiles": "F[B-]1(F)n2c(-c3ccccc3)cc(-c3ccccc3)c2N=C2C(c3ccccc3)=CC(c3ccccc3)=[N+]21", "values": [{"measurement": "fluorescence lifetime", "setting": "in CC#N", "result": 0.78, "unit": "ns"}]}, {"smiles": "CCCCn1c(-c2ccc(-c3nnc(-c4ccc(-c5nc6c7ccccc7c7ccccc7c6n5CCCC)cc4)o3)cc2)nc2c3ccccc3c3ccccc3c21", "values": [{"measurement": "fluorescence lifetime", "setting": "in ClCCl", "result": 1.64, "unit": "ns"}]}, {"smiles": "c1ccc([B-]2(c3ccccc3)Oc3ccc4ccccc4c3-c3c4ccccc4cc[n+]32)cc1", "values": [{"measurement": "fluorescence lifetime", "setting": "in Cc1ccccc1", "result": 9.47, "unit": "ns"}]}, {"smiles": "CC(C)(C)c1ccc2c(c1)-c1c3c(c4c5c1-c1cc(C(C)(C)C)ccc1OB5Oc1ccc(C(C)(C)C)cc1-4)-c1cc(C(C)(C)C)ccc1OB3O2", "values": [{"measurement": "fluorescence lifetime", "setting": "in ClCCl", "result": 3.96, "unit": "ns"}]}, {"smiles": "COc1cc(OC)c2cc(-c3cccc(-c4cc5c(OC)cc(OC)cc5oc4=O)c3)c(=O)oc2c1", "values": [{"measurement": "fluorescence lifetime", "setting": "in ClC(Cl)Cl", "result": 2.6, "unit": "ns"}]}, {"smiles": "FC(F)(F)C(F)(F)C(F)(F)C1=NC2=C(Br)C=C3c4cc(Br)c5nc(C(F)(F)C(F)(F)C(F)(F)F)nc6c(Br)cc(c4c56)=C4C=C(Br)C(=N1)C2C34", "note": "(stereo not drawn)", "values": [{"measurement": "fluorescence lifetime", "setting": "in C1CCOC1", "result": 2.1, "unit": "ns"}]}, {"smiles": "CC(C)(C)c1ccc2c(c1)B1c3cc(C(C)(C)C)ccc3Oc3cc(-n4c5ccccc5c5c6c(c7ccccc7n6-c6ccccc6)c6c(c7ccccc7n6-c6ccccc6)c54)cc(c31)O2", "values": [{"measurement": "fluorescence lifetime", "setting": "in Cc1ccccc1", "result": 19.6, "unit": "ns"}]}, {"smiles": "CCC1(CC)c2cc(N(c3ccccc3)c3ccccc3)ccc2-c2c1c1c(c3c2C(CC)(CC)c2cc(N(c4ccccc4)c4ccccc4)ccc2-3)C(CC)(CC)c2cc(N(c3ccccc3)c3ccccc3)ccc2-1", "values": [{"measurement": "fluorescence lifetime", "setting": "in C1CCOC1", "result": 2.1, "unit": "ns"}]}, {"smiles": "CC1=[N+]2C(=C(NC(C)c3ccccc3)c3ccc(C)n3[B-]2(F)F)C=C1c1cc2n(c1)[B-](F)(F)[N+]1=CC=CC1=C2c1c(C)cc(C)cc1C", "note": "(stereo not drawn)", "values": [{"measurement": "fluorescence lifetime", "setting": "in C1CCCCC1", "result": 2.07, "unit": "ns"}, {"measurement": "fluorescence lifetime", "setting": "in CCOC(C)=O", "result": 0.52, "unit": "ns"}]}, {"smiles": "C1C[C@H]2CC[C@@H]1N=N2", "values": [{"measurement": "fluorescence lifetime", "setting": "in CC#N", "result": 434, "unit": "ns"}]}, {"smiles": "N#CC1=c2cc3c4c(c2Oc2c1cc1c5c2CCCN5CCC1)CCC[N+]=4CCC3", "values": [{"measurement": "fluorescence lifetime", "setting": "in CCO", "result": 1.93, "unit": "ns"}]}, {"smiles": "CCN(CC)c1ccc(/N=N/c2nc3ccc(OC)cc3s2)cc1", "values": [{"measurement": "fluorescence lifetime", "setting": "in CC#N", "result": 2.72, "unit": "ns"}, {"measurement": "fluorescence lifetime", "setting": "in ClCCl", "result": 3.13, "unit": "ns"}]}, {"smiles": "Cc1cc(C)c(B(c2ccccc2N2c3ccccc3Oc3ccccc32)c2c(C)cc(C)cc2C)c(C)c1", "values": [{"measurement": "fluorescence lifetime", "setting": "in Cc1ccccc1", "result": 62, "unit": "ns"}]}, {"smiles": "COC(=O)c1[nH]c(-c2ccc([N+](=O)[O-])cc2)c2nnc3ccc(OC)cc3c12", "values": [{"measurement": "fluorescence lifetime", "setting": "in ClCCl", "result": 2.44, "unit": "ns"}]}, {"smiles": "c1ccc(N(c2ccccc2)c2ccc(-c3cccc4nc5ccccc5cc34)cc2)cc1", "values": [{"measurement": "fluorescence lifetime", "setting": "in CC#N", "result": 6.83, "unit": "ns"}, {"measurement": "fluorescence lifetime", "setting": "in CCCCCC", "result": 1.95, "unit": "ns"}, {"measurement": "fluorescence lifetime", "setting": "in CCOCC", "result": 6.67, "unit": "ns"}, {"measurement": "fluorescence lifetime", "setting": "in ClCCl", "result": 14.5, "unit": "ns"}]}, {"smiles": "CC(C)(C)NC1=CC2=c3cc(NC(C)(C)C)c4nc(C(F)(F)C(F)(F)C(F)(F)F)nc5c(NC(C)(C)C)cc(c3c54)C3=CC(NC(C)(C)C)=C4N=C(C(F)(F)C(F)(F)C(F)(F)F)N=C1C4C32", "note": "(stereo not drawn)", "values": [{"measurement": "fluorescence lifetime", "setting": "in C1CCOC1", "result": 6.1, "unit": "ns"}]}, {"smiles": "c1ccc(-c2nc(-c3ccccc3)nc(-c3cc(-n4c5ccccc5c5ncccc54)c(-n4c5ccccc5c5ncccc54)c(-n4c5ccccc5c5ncccc54)c3)n2)cc1", "values": [{"measurement": "fluorescence lifetime", "setting": "in O=P(c1ccccc1)(c1ccccc1)c1ccc2oc3ccc(P(=O)(c4ccccc4)c4ccccc4)cc3c2c1", "result": 14.5, "unit": "ns"}]}, {"smiles": "F[B-]1(F)n2c(c3c(c2-c2ccccc2)C2C=CC3CC2)C(c2ccccc2)=C2C3=C(C(c4ccccc4)=[N+]21)C1C=CC3CC1", "note": "(stereo not drawn)", "values": [{"measurement": "fluorescence lifetime", "setting": "in ClCCl", "result": 6.1, "unit": "ns"}]}, {"smiles": "C1=Cc2ccccc2Cc2ccccc21", "values": [{"measurement": "fluorescence lifetime", "setting": "in CC#N", "result": 3.72, "unit": "ns"}]}, {"smiles": "N#Cc1ccc2nc3[nH]c(=O)[nH]c(=O)c3nc2c1", "values": [{"measurement": "fluorescence lifetime", "setting": "in ClCCCl", "result": 0.18, "unit": "ns"}]}, {"smiles": "CC1(C)CC(/C=C/c2ccc(-n3ccnc3)cc2)=CC(=C(C#N)C#N)C1", "values": [{"measurement": "fluorescence lifetime", "setting": "in CCO", "result": 0.03, "unit": "ns"}]}, {"smiles": "Cc1cc(C)n2c1C=C1c3ccccc3C(c3cccn3C)=[N+]1[B-]2(F)F", "values": [{"measurement": "fluorescence lifetime", "setting": "in ClCCl", "result": 6.91, "unit": "ns"}]}, {"smiles": "CN(C)c1ccc2c(c1)C(C)(C)C(=O)C=C2", "values": [{"measurement": "fluorescence lifetime", "setting": "in O", "result": 3.66, "unit": "ns"}]}, {"smiles": "Cc1cc2ccc(-c3cccc4cccc(-c5ccc6cc(C)c(=O)oc6c5)c34)cc2oc1=O", "values": [{"measurement": "fluorescence lifetime", "setting": "in C1CCCCC1", "result": 0.85, "unit": "ns"}, {"measurement": "fluorescence lifetime", "setting": "in CC#N", "result": 2.72, "unit": "ns"}, {"measurement": "fluorescence lifetime", "setting": "in CO", "result": 5.38, "unit": "ns"}]}, {"smiles": "CCOC(=O)c1ccccc1-c1c2ccc(=O)cc-2oc2cc(OC(=O)[C@H](CSCc3ccc(C)cc3)NC(=O)OC(C)(C)C)ccc12", "values": [{"measurement": "fluorescence lifetime", "setting": "in C1CCOC1", "result": 2.49, "unit": "ns"}, {"measurement": "fluorescence lifetime", "setting": "in CC#N", "result": 2.97, "unit": "ns"}, {"measurement": "fluorescence lifetime", "setting": "in CCO", "result": 3.29, "unit": "ns"}, {"measurement": "fluorescence lifetime", "setting": "in CS(C)=O", "result": 4.06, "unit": "ns"}]}, {"smiles": "COC(=O)c1c2ccccc2nc2ccccc12", "values": [{"measurement": "fluorescence lifetime", "setting": "in C1CCOC1", "result": 1.1, "unit": "ns"}, {"measurement": "fluorescence lifetime", "setting": "in C1COCCO1", "result": 0.9, "unit": "ns"}, {"measurement": "fluorescence lifetime", "setting": "in CC#N", "result": 0.9, "unit": "ns"}, {"measurement": "fluorescence lifetime", "setting": "in CCCCCO", "result": 0.7, "unit": "ns"}, {"measurement": "fluorescence lifetime", "setting": "in CCCCO", "result": 0.8, "unit": "ns"}, {"measurement": "fluorescence lifetime", "setting": "in CCCO", "result": 0.7, "unit": "ns"}, {"measurement": "fluorescence lifetime", "setting": "in CCO", "result": 0.8, "unit": "ns"}, {"measurement": "fluorescence lifetime", "setting": "in CO", "result": 1.2, "unit": "ns"}, {"measurement": "fluorescence lifetime", "setting": "in COCCOC", "result": 1.3, "unit": "ns"}, {"measurement": "fluorescence lifetime", "setting": "in ClC(Cl)Cl", "result": 0.9, "unit": "ns"}, {"measurement": "fluorescence lifetime", "setting": "in ClCCl", "result": 1.3, "unit": "ns"}, {"measurement": "fluorescence lifetime", "setting": "in OCCO", "result": 1.1, "unit": "ns"}]}, {"smiles": "C/C=C/c1cccc(OC)c1", "values": [{"measurement": "fluorescence lifetime", "setting": "in CC#N", "result": 6.5, "unit": "ns"}, {"measurement": "fluorescence lifetime", "setting": "in CCCCCC", "result": 5.9, "unit": "ns"}]}, {"smiles": "C[Si]1(C)c2cc(-c3ccc(N(c4ccccc4)c4ccccc4)cc3)ccc2C=Cc2ccc(-c3ccc(N(c4ccccc4)c4ccccc4)cc3)cc21", "values": [{"measurement": "fluorescence lifetime", "setting": "in ClCCl", "result": 2.1, "unit": "ns"}]}, {"smiles": "COC(=O)c1cc(=O)n(C)c2cc(-c3ccc4c(c3)OCCO4)sc12", "values": [{"measurement": "fluorescence lifetime", "setting": "in ClCCl", "result": 2.15, "unit": "ns"}]}, {"smiles": "COCCOCCOCCOCC(COCCOCCOCCOC)Oc1cc(/C=C/c2ccc(/C=C(\\C#N)C(=O)c3ccccc3)cc2)c(OC(COCCOCCOCCOC)COCCOCCOCCOC)cc1/C=C/c1ccc(/C=C(\\C#N)C(=O)c2ccccc2)cc1", "values": [{"measurement": "fluorescence lifetime", "setting": "in ClCCl", "result": 1, "unit": "ns"}]}, {"smiles": "Cc1cc(-c2nnc(-c3c(C(C)C)cc(C(C)C)cc3C(C)C)o2)ccc1-n1c2ccccc2c2ccccc21", "values": [{"measurement": "fluorescence lifetime", "setting": "in CCO", "result": 1.49, "unit": "ns"}]}, {"smiles": "CC(C)(C)c1ccc2c(c1)c1cc(C(C)(C)C)ccc1n2-c1ccc(C(=CC#N)c2ccc(-n3c4ccc(C(C)(C)C)cc4c4cc(C(C)(C)C)ccc43)cc2)cc1", "values": [{"measurement": "fluorescence lifetime", "setting": "in Cc1ccccc1", "result": 3.86, "unit": "ns"}]}, {"smiles": "CC(C)(C)N1C(=O)c2c(cc3ccc4cccc5ccc2c3c45)C1O", "note": "(stereo not drawn)", "values": [{"measurement": "fluorescence lifetime", "setting": "in ClC(Cl)Cl", "result": 4.93, "unit": "ns"}]}, {"smiles": "CCC(CC)COC1=CC2=C3c4cc(OCC(CC)CC)c(-c5ccccc5)n4[B-](F)(F)[n+]4nnn(c43)[B-](F)(F)[N+]2=C1c1ccccc1", "values": [{"measurement": "fluorescence lifetime", "setting": "in C1CCOC1", "result": 1.01, "unit": "ns"}, {"measurement": "fluorescence lifetime", "setting": "in ClCCl", "result": 0.95, "unit": "ns"}]}]}
